From patent US20240139125A1 (INDUSTRIAL COOPERATION FOUNDATION JEONBUK NATIONAL …, priority 2020, published 2024)

Experiments:
MDA-MB-231 = assay: Cell proliferation/viability with BIA, IC50 after 3 days; format: cell-based; conditions: Homo sapiens, 72 h; MDA-MB-231 cells, treatment for 3 days
SKBR3 = assay: as above; format: cell-based; conditions: Homo sapiens, SK-BR-3, 72 h; SKBR3 cells, treatment for 3 days
[1] = target: T1, binding of BI-1 and mTORC2 and ribosomes (Homo sapiens, UniProt P55061); assay: PLA, immunoprecipitation and gel filtration of BI-1/mTORC2/ribosome binding; format: cell-based
T1 construct: expressed in transfected cells
T1 sequence (P55061 whole entry): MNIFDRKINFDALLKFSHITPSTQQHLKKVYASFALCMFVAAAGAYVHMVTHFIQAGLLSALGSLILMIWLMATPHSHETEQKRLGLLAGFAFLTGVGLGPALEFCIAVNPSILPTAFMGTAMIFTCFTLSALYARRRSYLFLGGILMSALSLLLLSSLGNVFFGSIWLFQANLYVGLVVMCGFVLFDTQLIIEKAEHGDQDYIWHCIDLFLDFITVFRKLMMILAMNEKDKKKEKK
Method: The graph below quantifies the fine and bright spots (n=5 independent experiment). The scale bar represents 20 μm. Data were expressed as mean±SD. **p<0.01, ****p<0.0001, followed by a binary ANOVA, followed by Bonferroni's post hoc test.
FIG. 62B is the result of PLA between RICTOR and the following proteins mTOR, RPL19 and RPS 16 in HT1080 cells treated with 10 μM BIA. The scale bar represents 20 μm. The graph on the right quantifies the fine and bright points (n=5 independent experiment). Data were expressed as mean±SD. **p<0.01, ***p<0.001, ****p<0.0001, followed by a binary ANOVA followed by Bonferroni's post hoc test.
HT1080 cells knocked out of BI-1 (using 8 10 cm cell culture dishes for each sample) were temporarily transformed using HA-BI-1 (TMBIM6) plasmids. HT1080 cells knocked out of BI-1 were treated with 10 μM of 2E-1-2-Aminophenyl-3-3-nitrophenyl-2-propen-1-one (BIA). After 24 hours, CHAPS containing protease inhibitor cocktail and phosphatase inhibitor cocktail Cells were lysed in 1.0 ml of buffer (pH 7.4, 150 mM NaCl, 1 mM EDTA and 25 mM HEPES at 0.3% CHAPS). The cell lysate was filtered with a 0.45 μm syringe filter. […] 50 μL of each fraction was electrophoresis with SDS-PAGE and then detected with various antibodies. […]

[2] = tested on: human breast cancer cells labeled with DiI dye; assay: Zebrafish tumor model; format: in vivo; conditions: 2 uM BIA, third day after transplantation
[3] = tested on: tumors derived from MDA-MB-231 cells; assay: Xenograft in nude mice; format: in vivo; conditions: MDA-MB-231 xenograft, 1 mg/kg BIA, 5 days a week, 25 days
Method: FIG. 67C and FIG. 67D show the volume and weight of tumors derived from MDA-MB-231 cells injected into a nude mouse treated with a vehicle or 1 mg/kg BIA. (n=5 mice for each group). Data were expressed as mean±SD. ***p<0.001, ****p<0.0001, followed by binary ANOVA, followed by Bonferroni's post hoc test (C) or two-tailed unpaired t-test (B).
Mice purchased 20-25 g of BALBc/Nude and conducted experiments after 1 week of preliminary breeding to adapt to the laboratory environment. This experiment was approved by the Animal Experiment Ethics Committee of Chonbuk National University (CBNU 201 5-064, CBNU 2016-56) and was carried out according to standard work instructions, and the conditions in the breeding room were kept constant temperature and relative humidity, a 12-hour contrast cycle, and water and feed were freely consumed. Experimental animals are transplanted subcutaneously with 5×10^6 cells per mouse using HT1080 cell line and MDA-MB-231 cell line, and after 7-10 days, mice forming tumor sizes of 100 mm^3 are randomly divided into control and experimental groups. The control group is injected with saline (including 10% DMSO) and the experimental group is injected with 1 mg/kg (10% DMSO) into the abdomen. The drug is given 5 days a week, and repeated for 4 weeks. […] The tumor size was measured with a caliper and calculated using the following formula: […]

[4] = tested on: HT1080, PANC-1, Capan-1 and MIA PaCa-2; assay: Cell viability (crystal violet), BIA versus mTOR inhibitors; format: cell-based; conditions: 10 μM

With `Nc1ccccc1C(=O)/C=C/c1cccc([N+](=O)[O-])c1` [BIA, 2E-1-2-Aminophenyl-3-3-nitrophenyl-2-propen-1-one] the IC50 (MDA-MB-231) was 2600 ± 500 nM, the IC50 (SKBR3) was 2400 ± 400 nM and the “protein interactions between mTORC2 and ribosomes or binding of BI-1 and mTORC2 and ribosomes” value ([1]; HT1080 cells, PLA and immunoprecipitation) was “inhibited”. The “co-elution pattern with mTORC2 components (mTOR and RICTOR) and ribosomes (RPL19)” value ([1]; gel filtration, BI-1 overexpressed HT1080 cells, BIA for 24 hours) was “delayed”, the “movement of tumor cells away from the primary site” value [2] was “remained at the injection site” and the tumor growth [3] was “significantly impaired”. The “cell viability compared to OSI-027 and Voxtalisib and other mTOR inhibitors” value [4] was “significantly reduced”.
